{
  "source": "patent US12486231B2",
  "about": "“Targeted nitroxide compounds and their use in treating ferroptosis-related diseases” (University of Pittsburgh—Of the Commonwealth System of …, priority 2019, dated 2025)",
  "key": {"HT-1080 cells": {"tested_on": "HT-1080 cells", "test": "Protection against Erastin-induced ferroptosis in HT-1080 cells (CellTiter-Glo)", "type": "cell-based", "settings": "for Erastin-induced ferroptosis in HT-1080 cells: % activity remaining at 1 μM / % Activity remaining (value at a concentration of 1 μM): compound 1 μM; for % Activity remaining (value at a concentration of 1 μM): relative to vehicle and Erastin samples", "protocol": "Compounds 6c, 6e, 6f, and 6i, as described above, were tested at a concentration of 1 μM, yielding values of 6c (85%), 6e (80%), 6f (77%), 6g (16%), 6h (78%), 6i (57%), and 6j (83%). For comparison, JP4-039 yielded a value of 56%. […] Briefly, 200 μL of a 5,000 cell/mL solution of HT-1080 cells were incubated for 24 h at 37° C. at 5% CO2, 95% humidity. The compounds were dissolved in DMSO and diluted to desired testing concentration. Compounds (1 μL) were added to culture medium (1 mL) containing 10 μM Erastin and incubated at 37° C., 5% CO2, 95% humidity for 24 h. CellTiter-Glo® reagent was added and the plate was incubated for 20 min at rt, sealed, centrifuged (1 min) at 1,000 rpm, shaken (1 min), and read in Enspire. % Activity remaining was determined as a function of vehicle sample and Erastin sample.\nB. Compounds 6a-6n were tested for their protection against Erastin-induced ferroptosis in HT-1080 cells. Briefly, 200 μL of a 5,000 cell/mL solution of HT-1080 cells were incubated for 24 h at 37° C. at 5% CO2, 95% humidity. The compounds were dissolved in DMSO and diluted to desired testing concentration. Compounds (1 μL) were added to culture medium (1 mL) containing 10 μM Erastin and incubated at 37° C., 5% CO2, 95% humidity for 24 h. CellTiter-Glo® reagent was added and the plate was incubated for 20 min at rt, sealed, centrifuged (1 min) at 1,000 rpm, shaken (1 min), and read in Enspire. % Activity remaining was determined as a function of vehicle sample and Erastin sample."}, "[1]": {"settings": "10 μM Erastin, 24 h, HT-1080 cells"}, "[2]": {"settings": "10 μM Erastin, 24 h, HT-1080 cells, read-out: EC50"}},
  "note": "Like-named read-outs stand apart in the source and are kept apart here.",
  "data": [
    {"compound": "CC(C)(C)OC(=O)N[C@@H](/C=C/CC(=O)NC1CC(C)(C)N([O])C(C)(C)C1)c1ccccc1", "note": "[6b, tert-Butyl (S,E)-(5-((1-oxy-2,2,6,6-tetramethylpiperidin-4-yl)amino)-5-oxo-1-phenylpent-2-en-1-yl)carbamate]", "values": [
      {"measurement": "EC50", "setting": "HT-1080 cells; Homo sapiens, HT-1080, 24 h", "result": 948, "unit": "nM"},
      {"measurement": "logP", "setting": "log P", "result": 2.92}
    ]},
    {"compound": "CC(C)C[C@@H](/C=C/CNC(=O)C1CC(C)(C)N([O])C(C)(C)C1)NC(=O)OC(C)(C)C", "note": "[6i, tert-Butyl (S,E)-(1-(1-oxy-2,2,6,6-tetramethylpiperidine-4-carboxamido)-6-methylhept-2-en-4-yl)carbamate]", "values": [
      {"measurement": "Erastin-induced ferroptosis in HT-1080 cells: % activity remaining at 1 μM", "setting": "HT-1080 cells; [1]", "result": 57, "unit": "%"},
      {"measurement": "% Activity remaining (value at a concentration of 1 μM)", "setting": "HT-1080 cells; [1]", "result": 57, "unit": "%"},
      {"measurement": "logP", "setting": "log P", "result": 3.15}
    ]},
    {"compound": "CC(C)C[C@@H](/C=C/[C@H](Cc1ccccc1)C(=O)NC1CC(C)(C)N(O)C(C)(C)C1)NC(=O)OC(C)(C)C", "note": "[6j, tert-Butyl ((4S,7S,E)-7-benzyl-8-((1-oxy-2,2,6,6-tetramethylpiperidin-4-yl)amino)-2-methyl-8-oxooct-5-en-4-yl)carbamate]", "values": [
      {"measurement": "EC50", "setting": "HT-1080 cells; Homo sapiens, 10 μM Erastin, 24 h, HT-1080 cells, read-out: EC50", "result": 207, "unit": "nM"},
      {"measurement": "EC50", "setting": "HT-1080 cells; Homo sapiens, 10 μM Erastin, 24 h, HT-1080 cells, read-out: Erastin-induced ferroptosis in HT-1080 cells: EC50", "result": 207, "unit": "nM"},
      {"measurement": "Erastin-induced ferroptosis in HT-1080 cells: % activity remaining at 1 μM", "setting": "HT-1080 cells; [1]", "result": 83, "unit": "%"},
      {"measurement": "% Activity remaining (value at a concentration of 1 μM)", "setting": "HT-1080 cells; [1]", "result": 83, "unit": "%"},
      {"measurement": "logP", "setting": "log P", "result": 4.93}
    ]},
    {"compound": "CC(C)C[C@@H](/C=C/[C@H](Cc1ccc(F)cc1)C(=O)NC1CC(C)(C)N(O)C(C)(C)C1)NC(=O)OC(C)(C)C", "note": "[6k, tert-Butyl ((4S,7S,E)-7-(4-fluorobenzyl)-8-((1-oxy-2,2,6,6-tetramethylpiperidin-4-yl)amino)-2-methyl-8-oxooct-5-en-4-yl)carbamate]", "values": [
      {"measurement": "logP", "setting": "log P", "result": 5.09}
    ]},
    {"compound": "CC(C)CC(C=CCC(=O)NC1CC(C)(C)N([O])C(C)(C)C1)NC(=O)OC(C)(C)C", "note": "[6l, tert-Butyl (S,Z)-(8-((1-oxy-2,2,6,6-tetramethylpiperidin-4-yl)amino)-2-methyl-8-oxooct-5-en-4-yl)carbamate]", "values": [
      {"measurement": "log P", "setting": "log P", "result": 2.76}
    ]},
    {"compound": "CC(C)C[C@@H](CCCC(=O)NC1CC(C)(C)N([O])C(C)(C)C1)NC(=O)OC(C)(C)C", "note": "[6m, tert-Butyl (R)-(8-((1-oxy-2,2,6,6-tetramethylpiperidin-4-yl)amino)-2-methyl-8-oxooctan-4-yl)carbamate]", "values": [
      {"measurement": "logP", "setting": "log P", "result": 2.94}
    ]},
    {"compound": "CCCCCCCC(=O)NC1CC(C)(C)N([O])C(C)(C)C1", "note": "[6n, N-(1-Oxy-2,2,6,6-tetramethylpiperidin-4-yl)octanamide]", "values": [
      {"measurement": "logP", "setting": "log P", "result": 2.83}
    ]},
    {"compound": "tert-Butyl (S,E)-(1-(1-((1-oxy-2,2,6,6-tetramethylpiperidin-4-yl)carbamoyl)cyclopentyl)-5-methylhex-1-en-3-yl)carbamate [6f]", "values": [
      {"measurement": "Erastin-induced ferroptosis in HT-1080 cells: % activity remaining at 1 μM", "setting": "HT-1080 cells; [1]", "result": 77, "unit": "%"},
      {"measurement": "% Activity remaining (value at a concentration of 1 μM)", "setting": "HT-1080 cells; [1]", "result": 77, "unit": "%"},
      {"measurement": "log P", "setting": "log P", "result": 4.37}
    ]},
    {"compound": "tert-Butyl (S,E)-(1-(1-((1-oxy-2,2,6,6-tetramethylpiperidin-4-yl)carbamoyl)cyclopropyl)-5-methylhex-1-en-3-yl)carbamate [6e]", "values": [
      {"measurement": "EC50", "setting": "HT-1080 cells; 10 μM Erastin, 24 h, HT-1080 cells, read-out: Erastin-induced ferroptosis in HT-1080 cells: EC50", "result": 958, "unit": "nM"},
      {"measurement": "Erastin-induced ferroptosis in HT-1080 cells: % activity remaining at 1 μM", "setting": "HT-1080 cells; [1]", "result": 80, "unit": "%"},
      {"measurement": "% Activity remaining (value at a concentration of 1 μM)", "setting": "HT-1080 cells; [1]", "result": 80, "unit": "%"},
      {"measurement": "log P", "setting": "log P", "result": 3.53}
    ]},
    {"compound": "tert-Butyl (S,E)-(1-(4-((1-oxy-2,2,6,6-tetramethylpiperidin-4-yl)carbamoyl)tetrahydro-2H-pyran-4-yl)-5-methylhex-1-en-3-yl)carbamate [6g]", "values": [
      {"measurement": "Erastin-induced ferroptosis in HT-1080 cells: % activity remaining at 1 μM", "setting": "HT-1080 cells; [1]", "result": 16, "unit": "%"},
      {"measurement": "% Activity remaining (value at a concentration of 1 μM)", "setting": "HT-1080 cells; [1]", "result": 16, "unit": "%"},
      {"measurement": "log P", "setting": "log P", "result": 3.10}
    ]},
    {"compound": "tert-Butyl (S,E)-(5-((1-oxy-2,2,6,6-tetramethylpiperidin-4-yl)amino)-4,4-dimethyl-5-oxo-1-phenylpent-2-en-1-yl)carbamate [6a]", "values": [
      {"measurement": "log P", "setting": "log P", "result": 4.19}
    ]},
    {"compound": "tert-Butyl (S,E)-(7,7-dibenzyl-8-((1-oxy-2,2,6,6-tetramethylpiperidin-4-yl)amino)-2-methyl-8-oxooct-5-en-4-yl)carbamate [6d]", "values": [
      {"measurement": "EC50", "setting": "HT-1080 cells; [2]", "result": 173, "unit": "nM"},
      {"measurement": "Erastin-induced ferroptosis in HT-1080 cells: % activity remaining at 1 μM", "setting": "HT-1080 cells; [1]", "result": 78, "unit": "%"},
      {"measurement": "log P", "setting": "log P", "result": 7.24}
    ]},
    {"compound": "tert-Butyl (S,E)-(7-(1-oxy-2,2,6,6-tetramethylpiperidine-4-carboxamido)-2,7-dimethyloct-5-en-4-yl)carbamate [6h]", "values": [
      {"measurement": "EC50", "setting": "HT-1080 cells; [2]", "result": 576, "unit": "nM"},
      {"measurement": "Erastin-induced ferroptosis in HT-1080 cells: % activity remaining at 1 μM", "setting": "HT-1080 cells; [1]", "result": 78, "unit": "%"},
      {"measurement": "% Activity remaining (value at a concentration of 1 μM)", "setting": "HT-1080 cells; [1]", "result": 78, "unit": "%"},
      {"measurement": "log P", "setting": "log P", "result": 3.68}
    ]},
    {"compound": "tert-Butyl (S,E)-(8-((1-oxy-2,2,6,6-tetramethylpiperidin-4-yl)amino)-2,7,7-trimethyl-8-oxooct-5-en-4-yl)carbamate [6c]", "values": [
      {"measurement": "Erastin-induced ferroptosis in HT-1080 cells: % activity remaining at 1 μM", "setting": "HT-1080 cells; [1]", "result": 85, "unit": "%"},
      {"measurement": "% Activity remaining (value at a concentration of 1 μM)", "setting": "HT-1080 cells; [1]", "result": 85, "unit": "%"},
      {"measurement": "log P", "setting": "log P", "result": 4.03}
    ]}
  ]
}
